Test results as given in patent US8580746B2, “Amide linkage cyclic natriuretic peptide constructs” (Palatin Technologies, Inc., priority 2006, dated 2013).
Numbered stars: 1 amine (or outer) side, 2 acyl side, 3 side chain; on linkers, the order of the positions; unused ones are H or OH. Bridge positions count the residues as written; N and C are the ends. Square brackets hold non-standard residues; d marks the D form. Peptide text beside a SMILES is read from it. * marks the point of attachment. X1 = N=C(N)NCCC[C@H]1C(=O)N[C@@H](C(N)=O)CN1*; Glutaryl = O=C(CCCC(=O)[*:2])[*:1]; Suc = O=C(CCC(=O)[*:2])[*:1]; dNle = CCCC[C@@H](N)C(=O)O; Heptanoyl = CCCCCCC(=O)*; Nle = CCCC[C@H](N)C(=O)O; Orn = NCCC[C@H](N)C(=O)O; Dab = NCC[C@H](N)C(=O)O; Dap = NC[C@H](N)C(=O)O

Legend:
[1] = biological target: T1, human natriuratic peptide receptor A (NPRA) (Homo sapiens, UniProt P16066); experiment: Competitive inhibition binding assay, [125I]-ANP, membrane homogenates from HEK-hNPRA cells; settings: for Percent Inhibition: inhibition of [125I]-ANP binding to HEK-hNPRA membranes, construct concentration not stated; for Ki: [125I]-ANP competition, HEK-hNPRA membranes
T1 sequence (P16066 33-1061): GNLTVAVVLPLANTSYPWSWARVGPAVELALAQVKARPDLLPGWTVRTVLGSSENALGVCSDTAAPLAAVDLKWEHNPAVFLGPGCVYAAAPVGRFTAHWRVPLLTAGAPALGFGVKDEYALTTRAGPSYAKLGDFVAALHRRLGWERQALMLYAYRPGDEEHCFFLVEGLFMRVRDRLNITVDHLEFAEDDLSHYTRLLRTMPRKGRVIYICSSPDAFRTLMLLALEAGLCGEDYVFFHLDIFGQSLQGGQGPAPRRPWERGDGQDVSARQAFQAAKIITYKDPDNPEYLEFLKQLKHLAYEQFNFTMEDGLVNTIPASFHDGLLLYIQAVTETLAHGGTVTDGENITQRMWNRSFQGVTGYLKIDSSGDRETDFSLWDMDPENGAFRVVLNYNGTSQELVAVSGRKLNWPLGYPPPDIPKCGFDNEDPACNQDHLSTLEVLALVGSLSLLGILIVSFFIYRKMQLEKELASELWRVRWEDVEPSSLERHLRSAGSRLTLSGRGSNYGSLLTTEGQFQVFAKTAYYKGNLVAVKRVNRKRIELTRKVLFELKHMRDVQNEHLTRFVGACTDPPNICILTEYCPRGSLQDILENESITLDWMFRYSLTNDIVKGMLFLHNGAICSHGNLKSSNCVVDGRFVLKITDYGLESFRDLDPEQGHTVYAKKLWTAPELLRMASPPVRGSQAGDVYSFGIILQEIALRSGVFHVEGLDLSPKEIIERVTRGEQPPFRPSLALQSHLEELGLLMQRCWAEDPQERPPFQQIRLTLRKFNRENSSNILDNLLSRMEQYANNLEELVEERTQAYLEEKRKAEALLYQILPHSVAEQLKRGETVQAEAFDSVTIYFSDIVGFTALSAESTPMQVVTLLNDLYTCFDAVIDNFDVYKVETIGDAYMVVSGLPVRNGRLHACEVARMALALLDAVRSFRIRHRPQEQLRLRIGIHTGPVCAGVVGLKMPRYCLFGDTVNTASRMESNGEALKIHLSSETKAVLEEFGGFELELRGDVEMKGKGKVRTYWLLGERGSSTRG
Description: (§1) A cDNA clone that encodes for human natriuratic peptide receptor A (NPRA) was purchased from Bio S&T Inc. (Montreal, Quebec). The cDNA clone was inserted into the mammalian expression vector pcDNA3.1 (Invitrogen) and transfected into HEK-293 cells. Stable clones were selected by culture of cells in the presence of G418 sulfate. Expression of NPRA was examined by binding of [^125I]-atrial natriuretic peptide ([^125I]-ANP) to membrane homogenates prepared from clonal cell lines. HEK-hNPRA cells were maintained in culture at 37° C. in 5% CO2 in Dulbecco's Modified Eagle's Medium (DMEM) supplemented with 10% FBS, G418 sulfate (300 μg/mL) sodium glutamate (0.29 mg/mL), penicillin (100 units/mL) and streptomycin (100 ug/mL).
A competitive inhibition binding assay was performed using crude membrane homogenates prepared from HEK-hNPRA cells. To prepare membrane homogenates, cells were rinsed with phosphate-buffered saline and incubated for 15 minutes at 4° C. in hypotonic lysis buffer (10 mM Tris, pH 7.4+5 mM EDTA). Cells were transferred from plates to polypropylene tubes and homogenized. Homogenates were centrifuged at 25,000×g for 20 minutes. Pellets were resuspended in buffer consisting of 50 mM Tris (pH 7.4) and 1 mM EDTA, homogenized and centrifuged at 25,000×g for 20 minutes. Pellets were resuspended in buffer consisting of 100 mM Tris (pH 7.4) and 10 mM MgCl2 and stored at −80° C. until needed. On the day of an assay, homogenates were thawed and homogenized. Binding of [^125I]-ANP was carried out in buffer containing 25 mM Hepes (pH 7.4), 100 mM NaCl, 2 mM CaCl2, 5 mM MgCl2, 0.1% BSA and 1 mM 1,10-phenanthroline. Homogenates (1-10 μg protein/well) were incubated with [^125I]-ANP (25-30 pM) and increasing concentrations of competing ligands in Millipore filter plates for 120 minutes at 4° C. Assays were stopped by addition of cold wash buffer (phosphate-buffered saline) followed by filtration using a vacuum manifold. Bound radioactivity was determined using a gamma counter. Non-specific binding was defined by binding of [I^125]-hANP to non-transfected HEK293 membranes. Data were analyzed using GraphPad Prism® curve-fitting software.

hNPR-A = biological target: T2, hNPR-A (Homo sapiens, UniProt P16066); experiment: Accumulation of intracellular cGMP in HEK-293 cells that express recombinant hNPR-A; assay type: cell-based; settings: HEK-hNPRA cells
T2 sequence (P16066 33-1061): T1 sequence (P16066 33-1061)
Description: as §1
Functional evaluation of constructs was performed by measuring the accumulation of intracellular cGMP in HEK-293 cells that express recombinant hNPR-A. HEK-NPRA cells were harvested by washing and centrifugation in Cell Dissociation Buffer (Gibco, Life Technologies). Pelleted cells were resuspended in Hank's Balanced Salt Solution (HBSS) containing 10 mM Hepes (pH 7.4), 5 mM MgCl2, […], 1 mM 1,10-phenanthroline and BSA (0.5 mg/mL). Following centrifugation, cells were resuspended in the above buffer supplemented with 0.5 mM 3-isobutyl-1-methylxanthine (IBMX). Cells (˜2×10^5/well) were added to each well of a 96-well plate and incubated for 15 minutes at 37° C. Following the pre-incubation period, cells were incubated for an additional 15 minutes in the presence of increasing concentrations of constructs. The reaction was terminated by lysis of the cells with temperature shock. The reaction plate was incubated in a dry ice/ethanol bath for 15 minutes followed by incubation at 90° C. for 10 minutes. Accumulation of cGMP was measured using the cGMP Flashplate RIA (Perkin-Elmer). Data analysis and EC50 values were determined by using nonlinear regression analysis with GraphPad Prism® software.

[2] = Resistance to degradation by human neutral endopeptidase; assay type: in vitro ADME; settings: isolated enzyme neprilysin; 50 μM concentration of human neutral endopeptidase; two hours; read-out: percent of construct remained after incubation for two hours
Procedure: (§2) In other tests, resistance to degradation by a 50 μM concentration of human neutral endopeptidase was determined for selected constructs.

neutral endopeptidase = experiment: as above; assay type: in vitro ADME; settings: human neutral endopeptidase (isolated enzyme); 50 μM concentration of human neutral endopeptidase; two hours; read-out: percent of construct remained after incubation for two hours
Procedure: as §2

[3] = in vivo
Procedure: as §2

SMILES | Percent Inhibition [1] [%] | EC50 (hNPR-A) [nM] | remaining at 2 h [2] [%] | remaining at 2 h (neutral endopeptidase) [%] | Ki [1] [nM] | half-life [3] [min]
CCCCCCC(=O)N[C@H]1CNC(=O)CCCC(=O)NCCC[C@@H](C(=O)N[C@@H](Cc2ccc(O)cc2)C(=O)N2C[C@H](C(N)=O)NC(=O)[C@@H]2CCCNC(=N)N)NC(=O)[C@H](CO)NC(=O)[C@H]([C@@H](C)CC)NC(=O)[C@H](CCCNC(=N)N)NC(=O)[C@H](CC(=O)O)NC(=O)[C@H](CCCC)NC(=O)[C@H](CCCNC(=N)N)NC(=O)CNC(=O)[C@@H](C)NC(=O)[C@H](Cc2ccccc2)NC(=O)[C@@H](Cc2c[nH]cn2)NC1=O [1-31] (Heptanoyl-[Dap][dH]F[dA]GR[Nle]DRIS[Orn]Y-X1; linker 1-12 via Glutaryl) | 68 | 10 | – | – | – | –
CCCCCCC(=O)N[C@H]1CNC(=O)CCC(=O)NC[C@@H](C(=O)N[C@@H](Cc2ccc(O)cc2)C(=O)N2C[C@H](C(N)=O)NC(=O)[C@@H]2CCCNC(=N)N)NC(=O)[C@H](CO)NC(=O)[C@H]([C@@H](C)CC)NC(=O)[C@H](CCCNC(=N)N)NC(=O)[C@H](CC(=O)O)NC(=O)[C@H](CCCC)NC(=O)[C@H](CCCNC(=N)N)NC(=O)CNC(=O)[C@@H](C)NC(=O)[C@H](Cc2ccccc2)NC(=O)[C@@H](Cc2c[nH]cn2)NC1=O [1-37] (Heptanoyl-[Dap][dH]F[dA]GR[Nle]DRIS[Dap]Y-X1; linker 1-12 via Suc) | 100 | 0.7 | – | – | – | –
CCCCCCC(=O)NCC[C@@H]1NC(=O)CC[C@@H](C(=O)N[C@@H](Cc2ccc(O)cc2)C(=O)N2C[C@H](C(N)=O)NC(=O)[C@@H]2CCCNC(=N)N)NC(=O)[C@H](CO)NC(=O)[C@H]([C@@H](C)CC)NC(=O)[C@H](CCCNC(=N)N)NC(=O)[C@H](CC(=O)O)NC(=O)[C@@H](CCCC)NC(=O)[C@H](CCCNC(=N)N)NC(=O)CNC(=O)[C@@H](C)NC(=O)[C@H](Cc2ccccc2)NC(=O)[C@H](Cc2c[nH]cn2)NC1=O [3-75] ([Dab](Heptanoyl)HF[dA]GR[dNle]DRISEY-X1; lactam N-12) | 98 | 5 | 97 | – | – | –
CCCCCCC(=O)NC[C@@H]1NC(=O)CC[C@@H](C(=O)N[C@@H](Cc2ccc(O)cc2)C(=O)N2C[C@H](C(N)=O)NC(=O)[C@@H]2CCCNC(=N)N)NC(=O)[C@H](CO)NC(=O)[C@H]([C@@H](C)CC)NC(=O)[C@H](CCCNC(=N)N)NC(=O)[C@H](CC(=O)O)NC(=O)[C@@H](CCCC)NC(=O)[C@H](CCCNC(=N)N)NC(=O)CNC(=O)[C@@H](C)NC(=O)[C@H](Cc2ccccc2)NC(=O)[C@H](Cc2c[nH]cn2)NC1=O [3-76] ([Dap](Heptanoyl)HF[dA]GR[dNle]DRISEY-X1; lactam N-12) | 93 | 10 | – | 84 | – | –

Continued, values first:

Percent Inhibition [1] [%] | EC50 (hNPR-A) [nM] | remaining at 2 h [2] [%] | remaining at 2 h (neutral endopeptidase) [%] | Ki [1] [nM] | half-life [3] [min] | SMILES
– | 11 | 95 | – | 40 | – | CCCC[C@H]1NC(=O)[C@H](CCCNC(=N)N)NC(=O)CNC(=O)[C@@H](C)NC(=O)[C@H](Cc2ccccc2)NC(=O)[C@H](Cc2c[nH]cn2)NC(=O)[C@@H](NC(=O)[C@@H](C)N)CCC(=O)NCC[C@@H](C(=O)N[C@@H](Cc2ccc(O)cc2)C(=O)N2C[C@H](C(N)=O)NC(=O)[C@@H]2CCCNC(=N)N)NC(=O)[C@H](CO)NC(=O)[C@H]([C@@H](C)CC)NC(=O)[C@H](CCCNC(=N)N)NC(=O)[C@H](CC(=O)O)NC1=O [4-90] (H-[dA]EHF[dA]GR[dNle]DRIS[Dab]Y-X1; lactam 2-13)
– | 0.25 | – | – | 0.6 | 6.6 | CCCC[C@H]1NC(=O)[C@H](CCCNC(=N)N)NC(=O)CNC(=O)CNC(=O)[C@H](Cc2ccccc2)NC(=O)[C@H](Cc2c[nH]cn2)NC(=O)[C@@H](NC(=O)[C@@H](C)N)CC(=O)NCC[C@@H](C(=O)N[C@@H](Cc2ccc(O)cc2)C(=O)N2C[C@H](C(N)=O)NC(=O)[C@@H]2CCCNC(=N)N)NC(=O)[C@H](CO)NC(=O)[C@H]([C@@H](C)CC)NC(=O)[C@H](CCCNC(=N)N)NC(=O)[C@H](CC(=O)O)NC1=O [4-98] (H-[dA]DHFGGR[dNle]DRIS[Dab]Y-X1; lactam 2-13)
78 | 0.25 | – | – | – | – | CCCCCCC(=O)N[C@H]1CC(=O)NCC[C@@H](C(=O)N[C@@H](Cc2ccc(O)cc2)C(=O)N2C[C@H](C(N)=O)NC(=O)[C@@H]2CCCNC(=N)N)NC(=O)[C@H](CO)NC(=O)[C@H]([C@@H](C)CC)NC(=O)[C@H](CCCNC(=N)N)NC(=O)[C@H](CC(=O)O)NC(=O)[C@H](CCCC)NC(=O)[C@H](CCCNC(=N)N)NC(=O)CNC(=O)CNC(=O)[C@H](Cc2ccccc2)NC(=O)[C@H](Cc2c[nH]cn2)NC1=O [4-137] (Heptanoyl-DHFGGR[Nle]DRIS[Dab]Y-X1; lactam 1-12)
100 | 4 | 89 | – | – | – | CCCCCCC(=O)N[C@H]1CC(=O)NCC[C@@H](C(=O)N[C@@H](Cc2ccc(O)cc2)C(=O)N2C[C@H](C(N)=O)NC(=O)[C@@H]2CCCNC(=N)N)NC(=O)[C@H](CO)NC(=O)[C@H]([C@@H](C)CC)NC(=O)[C@H](CCCNC(=N)N)NC(=O)[C@H](CC(=O)O)NC(=O)[C@@H](CCCC)NC(=O)[C@H](CCCNC(=N)N)NC(=O)CNC(=O)[C@@H](C)NC(=O)[C@H](Cc2ccccc2)NC(=O)[C@H](Cc2c[nH]cn2)NC1=O [4-138] (Heptanoyl-DHF[dA]GR[dNle]DRIS[Dab]Y-X1; lactam 1-12)
69 | 0.2 | – | – | – | – | CCCC[C@@H]1NC(=O)[C@H](CCCNC(=N)N)NC(=O)CNC(=O)CNC(=O)[C@H](Cc2ccccc2)NC(=O)[C@H](Cc2c[nH]cn2)NC(=O)[C@@H](N)CC(=O)NCC[C@@H](C(=O)N[C@@H](Cc2ccc(O)cc2)C(=O)N2C[C@H](C(N)=O)NC(=O)[C@@H]2CCCNC(=N)N)NC(=O)[C@H](CO)NC(=O)[C@H]([C@@H](C)CC)NC(=O)[C@H](CCCNC(=N)N)NC(=O)[C@H](CC(=O)O)NC1=O [4-143] (H-DHFGGR[Nle]DRIS[Dab]Y-X1; lactam 1-12)
